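In this assay, cells in 96-well plates receive the compound at five concentrations for 48 hours. Endpoints are linearly interpolated between the surrounding concentrations. GI50 marks 50% less growth.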 The source made the active and inactive calls. Cut-off read from the data, not from the text of the source: active = GI50 up to about 1.1 µM and inactive = higher.
Experiments:
Test in all cases: DTP human tumour cell line panel, 48 h
786-0 = tested on: 786-0
A498 = tested on: A498
A549 = tested on: A549
ACHN = tested on: ACHN
CCRF-CEM = tested on: CCRF-CEM
COLO 205 = tested on: COLO 205
DLD-1 = tested on: DLD-1
DMS-114 = tested on: DMS-114
DMS-273 = tested on: DMS-273
EKVX = tested on: EKVX
HCC 2998 = tested on: HCC 2998
HCT-116 = tested on: HCT-116
HCT-15 = tested on: HCT-15
HL-60 = tested on: HL-60
HOP-18 = tested on: HOP-18
HOP-62 = tested on: HOP-62
HOP-92 = tested on: HOP-92
HT-29 = tested on: HT-29
IGROV-1 = tested on: IGROV-1
K562 = tested on: K562
KM-20L2 = tested on: KM-20L2
KM12 = tested on: KM12
LOX IMVI = tested on: LOX IMVI
LXFL 529 = tested on: LXFL 529
M14 = tested on: M14
M19-MEL = tested on: M19-MEL
MOLT-4 = tested on: MOLT-4
Malme-3M = tested on: Malme-3M
NCI-H226 = tested on: NCI-H226
NCI-H23 = tested on: NCI-H23
NCI-H460 = tested on: NCI-H460
NCI-H522 = tested on: NCI-H522
OVCAR-3 = tested on: OVCAR-3
OVCAR-4 = tested on: OVCAR-4
OVCAR-8 = tested on: OVCAR-8
RPMI-8226 = tested on: RPMI-8226
RXF 393 = tested on: RXF 393
SF-268 = tested on: SF-268
SF-295 = tested on: SF-295
SF-539 = tested on: SF-539
SK-MEL-28 = tested on: SK-MEL-28
SK-MEL-2 = tested on: SK-MEL-2
SK-OV-3 = tested on: SK-OV-3
SN12C = tested on: SN12C
SNB-19 = tested on: SNB-19
SNB-75 = tested on: SNB-75
SR = tested on: SR
SW-620 = tested on: SW-620
TK-10 = tested on: TK-10
U-251 = tested on: U-251
UACC-257 = tested on: UACC-257
UACC-62 = tested on: UACC-62
UO-31 = tested on: UO-31
XF498 = tested on: XF498
CAKI-1 = tested on: CAKI-1
SK-MEL-5 = tested on: SK-MEL-5
SNB-78 = tested on: SNB-78

CCN(CC)C(=O)Cc1c(C(=O)N(CC)CC)c(=O)nc2sccn12
GI50 (786-0): > 100 µM (inactive) | GI50 (A498): > 100 µM (inactive) | GI50 (A549): > 100 µM (inactive) | GI50 (ACHN): > 100 µM (inactive) | GI50 (CCRF-CEM): > 100 µM (inactive) | GI50 (COLO 205): > 100 µM (inactive) | GI50 (DLD-1): > 100 µM (inactive) | GI50 (DMS-114): > 100 µM (inactive) | GI50 (DMS-273): > 100 µM (inactive) | GI50 (EKVX): > 100 µM (inactive) | GI50 (HCC 2998): > 100 µM (inactive) | GI50 (HCT-116): > 100 µM (inactive) | GI50 (HCT-15): > 100 µM | GI50 (HL-60): > 100 µM (inactive) | GI50 (HOP-18): > 100 µM (inactive) | GI50 (HOP-62): > 100 µM (inactive) | GI50 (HOP-92): > 100 µM (inactive) | GI50 (HT-29): > 100 µM (inactive) | GI50 (IGROV-1): > 100 µM (inactive) | GI50 (K562): > 100 µM (inactive) | GI50 (KM-20L2): > 100 µM (inactive) | GI50 (KM12): > 100 µM (inactive) | GI50 (LOX IMVI): > 100 µM (inactive) | GI50 (LXFL 529): > 100 µM (inactive) | GI50 (M14): > 100 µM (inactive) | GI50 (M19-MEL): > 100 µM (inactive) | GI50 (MOLT-4): > 100 µM (inactive) | GI50 (Malme-3M): > 100 µM (inactive) | GI50 (NCI-H226): > 100 µM (inactive) | GI50 (NCI-H23): > 100 µM (inactive) | GI50 (NCI-H460): > 100 µM (inactive) | GI50 (NCI-H522): > 100 µM (inactive) | GI50 (OVCAR-3): > 100 µM (inactive) | GI50 (OVCAR-4): > 100 µM (inactive) | GI50 (OVCAR-8): > 100 µM (inactive) | GI50 (RPMI-8226): > 100 µM (inactive) | GI50 (RXF 393): > 100 µM (inactive) | GI50 (SF-268): > 100 µM (inactive) | GI50 (SF-295): > 100 µM (inactive) | GI50 (SF-539): > 100 µM (inactive) | GI50 (SK-MEL-28): > 100 µM (inactive) | GI50 (SK-MEL-2): > 100 µM (inactive) | GI50 (SK-OV-3): > 100 µM (inactive) | GI50 (SN12C): > 100 µM (inactive) | GI50 (SNB-19): > 100 µM (inactive) | GI50 (SNB-75): > 100 µM (inactive) | GI50 (SR): > 100 µM (inactive) | GI50 (SW-620): > 100 µM (inactive) | GI50 (TK-10): > 100 µM (inactive) | GI50 (U-251): > 100 µM (inactive) | GI50 (UACC-257): > 100 µM (inactive) | GI50 (UACC-62): > 100 µM (inactive) | GI50 (UO-31): > 100 µM (inactive) | GI50 (XF498): > 100 µM (inactive)

O=C(Nc1ccccc1)c1cccc([N+](=O)[O-])c1
GI50 (786-0): > 100 µM (inactive) | GI50 (A498): > 100 µM (inactive) | GI50 (A549): > 100 µM (inactive) | GI50 (ACHN): > 100 µM (inactive) | GI50 (CAKI-1): > 100 µM (inactive) | GI50 (CCRF-CEM): > 100 µM (inactive) | GI50 (COLO 205): > 100 µM (inactive) | GI50 (DMS-114): 92.9 µM (inactive) | GI50 (DMS-273): > 100 µM (inactive) | GI50 (EKVX): > 100 µM (inactive) | GI50 (HCC 2998): > 100 µM (inactive) | GI50 (HCT-116): > 100 µM (inactive) | GI50 (HCT-15): > 100 µM | GI50 (HOP-18): > 100 µM (inactive) | GI50 (HOP-62): > 100 µM (inactive) | GI50 (HOP-92): > 100 µM (inactive) | GI50 (HT-29): > 100 µM (inactive) | GI50 (IGROV-1): > 100 µM (inactive) | GI50 (K562): > 100 µM (inactive) | GI50 (KM-20L2): 37.5 µM (inactive) | GI50 (M19-MEL): > 100 µM (inactive) | GI50 (MOLT-4): 60.8 µM (inactive) | GI50 (Malme-3M): > 100 µM (inactive) | GI50 (OVCAR-3): > 100 µM (inactive) | GI50 (OVCAR-8): > 100 µM (inactive) | GI50 (RPMI-8226): 39.9 µM (inactive) | GI50 (SF-268): > 100 µM (inactive) | GI50 (SF-539): > 100 µM (inactive) | GI50 (SK-MEL-28): > 100 µM (inactive) | GI50 (SK-MEL-5): > 100 µM (inactive) | GI50 (SN12C): > 100 µM (inactive) | GI50 (SNB-19): > 100 µM (inactive) | GI50 (SNB-75): > 100 µM (inactive) | GI50 (SNB-78): > 100 µM (inactive) | GI50 (SW-620): > 100 µM (inactive) | GI50 (U-251): > 100 µM (inactive) | GI50 (UACC-62): > 100 µM (inactive) | GI50 (XF498): > 100 µM (inactive)

Reference: ChEMBL document CHEMBL1201862, “PubChem BioAssay data set” (2004)
